In US20050202513A1:
Entries after “also recorded” stand apart in the source; their conditions may differ. Structures can show the parent of a compound that is named as a salt.

What was measured:
cancer patient [1] = assay: Blood serum human H-FABP level, sandwich ELISA (MARKIT M H-FABP kit); conditions: cut-off 6.2 ng/mL
cancer patient [2] = assay: Measurement of creatine kinase in blood
cancer patient [3] = assay: Blood Troponin T level, sandwich ELISA; conditions: cut-off 0.1 ng/mL
cancer patient [4] = assay: Electrocardiogram analysis; format: in vivo, human; conditions: adriamycin patient
cancer patient [5] = assay: Echocardiogram analysis, ejection fraction of the heart; format: in vivo, human; conditions: cancer patient administered with adriamycin, healthy volunteer not less than 60%
Description: By the echocardiogram analysis, the heart pump function was evaluated based on the ejection fraction (EF) of the heart as calculated by the following formula: Ejection fraction (%)={(left ventricular relaxation terminal diameter^2−left ventricular contraction terminal diameter^2)/left ventricular relaxation terminal diameter^2)×100
The ejection fraction of healthy volunteers is known to be not less than 60%.

cancer patient [6] = assay: Blood Myosin Light Chain I level, sandwich RIA; conditions: cut-off 2.5 ng/mL
cancer patient [7] = assay: Clinical diagnosis of cardiac function; format: in vivo, human; conditions: cancer patient administered with daunorubicin hydrochloride; expression of generalized edema
Description: The second blood sampling in the Table was performed one month after the first blood sampling.

[8] = adriamycin patient, first blood sampling
[9] = adriamycin patient, second blood sampling
[10] = adriamycin patient, third blood sampling
[11] = daunorubicin hydrochloride patient, first blood sampling
[12] = daunorubicin hydrochloride patient, second blood sampling (one month after the first)

COc1cccc2c1C(=O)c1c(O)c3c(c(O)c1C2=O)C[C@@](O)(C(=O)CO)C[C@@H]3O[C@H]1C[C@H](N)[C@H](O)[C@H](C)O1 [adriamycin, Doxorubicin hydrochloride]
Blood concentration Human H-FABP (cancer patient [1]; adriamycin patient, blood serum, first blood sampling): 6.8 ng/mL
Blood concentration Human H-FABP (cancer patient [1]; adriamycin patient, blood serum, second blood sampling (about 2.5 months after the first)): 9.0 ng/mL
Blood concentration Human H-FABP (cancer patient [1]; adriamycin patient, blood serum, third blood sampling (20 days after the second)): 19.6 ng/mL
Blood concentration Creatine kinase (cancer patient [2]; adriamycin patient, first blood sampling, healthy 25-180 U/L (male), 20-150 U/L (female)): 37 U/L
Blood concentration Creatine kinase (cancer patient [2]; adriamycin patient, second blood sampling (about 2.5 months after the first)): 36 U/L
Blood concentration Creatine kinase (cancer patient [2]; adriamycin patient, third blood sampling (20 days after the second)): 33 U/L
Blood concentration Troponin T (cancer patient [3]; [8]): <0.01 ng/mL
Blood concentration Troponin T (cancer patient [3]; [9]): 0.01 ng/mL
Blood concentration Troponin T (cancer patient [3]; [10]): 0.41 ng/mL
Electrocardiogram finding (cancer patient [4]; about 1 week before the third blood sampling, hydrochloride): T wave decreased; also recorded: sinus tachycardia and supraventricular extrasystole
Electrocardiogram finding (cancer patient [4]; about 2 weeks before the first blood sampling): extension of QTc
EF (ejection fraction) (cancer patient [5]; first blood sampling): 53%
EF (ejection fraction) (cancer patient [5]; third blood sampling (20 days after the second)): 37%
Blood concentration Myosin Light Chain I (cancer patient [6]; [8]): <1.0 ng/mL
Blood concentration Myosin Light Chain I (cancer patient [6]; [9]): <1.0 ng/mL
Blood concentration Myosin Light Chain I (cancer patient [6]; [10]): <1.0 ng/mL

COc1cccc2c1C(=O)c1c(O)c3c(c(O)c1C2=O)C[C@@](O)(C(C)=O)C[C@@H]3O[C@H]1C[C@H](N)[C@H](O)[C@H](C)O1 [daunorubicin hydrochloride]
Blood concentration Human H-FABP (cancer patient [1]; [11]): 7.6 ng/mL
Blood concentration Human H-FABP (cancer patient [1]; [12]): 6.9 ng/mL
Blood concentration Creatine kinase (cancer patient [2]; daunorubicin hydrochloride patient with cardiac failure, first blood sampling): 11 U/L
Blood concentration Creatine kinase (cancer patient [2]; daunorubicin hydrochloride patient with cardiac failure, second blood sampling (one month after the first)): 7 U/L
Blood concentration Troponin T (cancer patient [3]; [11]): <0.01 ng/mL
Blood concentration Troponin T (cancer patient [3]; [12]): <0.01 ng/mL
Diagnosis (cancer patient [7]): cardiac failure
Blood concentration Myosin Light Chain I (cancer patient [6]; [11]): <1.0 ng/mL
Blood concentration Myosin Light Chain I (cancer patient [6]; [12]): 1.4 ng/mL
